# According to patent US20060115815A1 (priority 2002, published 2006):
# Test system: wild-type HIV-1 strain IIIB
# Assay: microbe, parasite or virus in culture
# Format: cell-based
# Details: read-out: EC50
row,SMILES,EC50 [µM]
1,CCOC(=O)[C@H](C)OP(=O)(COc1ccc(C[C@H](NC(=O)O[C@H]2CO[C@H]3OCC[C@H]32)[C@H](O)CN(CC(C)C)S(=O)(=O)c2ccc(COC(=O)[C@H](N)C(C)C)cc2)cc1)Oc1ccccc1 (some centres unmarked),0.05 to 0.5
2,CCCCOC(=O)C(C)OP(=O)(COc1ccc(C[C@H](NC(=O)O[C@H]2CO[C@H]3OCC[C@H]32)[C@H](O)CN(CC(C)C)S(=O)(=O)c2cccc(N)c2)cc1)Oc1ccccc1 (some centres unmarked) [drawing 764],0.05 to 0.5
3,CCCCOC(=O)CNP(=O)(COc1ccc(C[C@H](NC(=O)O[C@H]2CO[C@H]3OCC[C@H]32)[C@H](O)CN(CC(C)C)S(=O)(=O)c2ccc(OC)cc2)cc1)Oc1ccccc1 (some centres unmarked) [drawing 657 R1=OPh R2=Gly-Ru],0.05 to 0.5
4,CCOC(=O)C(C)NP(=O)(COc1ccc(C[C@H](NC(=O)O[C@H]2CO[C@H]3OCC[C@H]32)[C@H](O)CN(CC(C)C)S(=O)(=O)c2ccc(OC)cc2)cc1)OCc1ccccc1 (some centres unmarked) [drawing 657 R1=OBn R2=Ala-Et],< 0.05
5,CCOC(=O)[C@H](C)OP(=O)(COc1ccc(C[C@H](NC(=O)O[C@H]2CO[C@H]3OCC[C@H]32)[C@H](O)CN(CC(C)C)S(=O)(=O)c2ccc(OC)cc2)cc1)ON1CCCCC1 (stereo partly drawn) [drawing 660 R1=OPip R2=(S)Lac-Et],0.5 to 5
6,CCOC(=O)C(C)OP(=O)(COc1ccc(CC(NC(=O)OC2COC3OCCC23)C(O)CN(CC(C)C)S(=O)(=O)c2ccc(OC)cc2)cc1)Oc1cccc(C(=O)O)c1 [drawing 660 R1=OPh-m-COOH R2=(S)Lac-Et],0.05 to 0.5
7,COc1ccc(S(=O)(=O)N(CC(C)C)C[C@@H](O)[C@H](Cc2ccc(OCP(=O)(Oc3ccccc3)O[C@@H](C)C(=O)OCCN3CCCCC3)cc2)NC(=O)O[C@H]2CO[C@H]3OCC[C@H]32)cc1 (stereo partly drawn) [drawing 659 R1=OPh R2=(S)Lac-EtPip],0.05 to 0.5
8,CCOC(=O)[C@H](C)OP(=O)(COc1ccc(C[C@H](NC(=O)O[C@H]2CO[C@H]3OCC[C@H]32)[C@H](O)CN(CC(C)C)S(=O)(=O)c2ccc(OC)cc2)cc1)Oc1cccc(CO)c1 (stereo partly drawn) [drawing 660 R1=OPh-m-CH2OH R2=(S)Lac-Et],0.05 to 0.5
9,COc1ccc(S(=O)(=O)N(CC(C)C)C[C@@H](O)[C@H](Cc2ccc(OCP(=O)(Oc3ccccc3)OC(C)C(=O)OCCCN3CCOCC3)cc2)NC(=O)O[C@H]2CO[C@H]3OCC[C@H]32)cc1 (some centres unmarked) [drawing 658 R1=OPh R2=Lac-PrMor],> 5
10,CC(C)CN(CC(O)C(Cc1ccc(OCP(=O)(OCc2ccccc2)OC(C)C(=O)OCc2ccccc2)cc1)NC(=O)OC1COC2OCCC12)S(=O)(=O)c1ccc[n+]([O-])c1 (centres unmarked),> 5
11,CCCCc1ccc(OP(=O)(COc2ccc(C[C@H](NC(=O)O[C@H]3CO[C@H]4OCC[C@H]43)[C@H](O)CN(CC(C)C)S(=O)(=O)c3ccc(OC)cc3)cc2)O[C@@H](C)C(=O)OCC)cc1 (stereo partly drawn) [drawing 660 R1=OPh—p-n-But R2=(S)Lac-Et],< 0.05
12,CCOP(=O)(OCC)c1ccc(CNCC(NC(=O)OC2COC3OCCC23)C(O)CN(CC(C)C)S(=O)(=O)c2ccc(OC)cc2)cc1 (centres unmarked),< 0.05
13,CCOC(=O)[C@H](C)OP(=O)(COc1ccc(C[C@H](NC(=O)O[C@H]2CO[C@H]3OCC[C@H]32)[C@H](O)CN(CC(C)C)S(=O)(=O)c2ccc(OC)cc2)cc1)Oc1cccc(CN(C)C)c1 (stereo partly drawn) [drawing 660 R1=OPh-m-CH2NMe2 R2=(S)Lac-Et],0.5 to 5
14,COc1ccc(S(=O)(=O)N(CC(C)C)C[C@@H](O)[C@H](Cc2ccc(OCP(=O)(Oc3ccccc3)O[C@@H](C)C(=O)OCCN3CCOCC3)cc2)NC(=O)O[C@H]2CO[C@H]3OCC[C@H]32)cc1 (stereo partly drawn) [drawing 659 R1=OPh R2=(S)Lac-EtMor],> 5
15,COc1ccc(S(=O)(=O)N(CC(C)C)C[C@@H](O)[C@H](Cc2ccc(OCP(=O)(OCOC(=O)OC(C)C)OCOC(=O)OC(C)C)cc2)NC(=O)O[C@H]2CO[C@H]3OCC[C@H]32)cc1 [drawing 651 R1=OPoc R2=OPoc],0.5 to 5
16,COc1ccc(S(=O)(=O)N(CC(C)C)CC(O)C(CC2=CCN(CCP(=O)(O)OC(C)C(=O)O)CC2)NC(=O)OC2COC3OCCC23)cc1 (centres unmarked),> 5
17,CCOC(=O)C(C)OP(=O)(COc1ccc(C[C@H](NC(=O)O[C@H]2CO[C@H]3OCC[C@H]32)[C@H](O)CN(CC(C)C)S(=O)(=O)c2ccc(O)cc2)cc1)Oc1ccccc1 (some centres unmarked),< 0.05
18,CCC(OP(=O)(COc1ccc(CC(NC(=O)OC2COC3OCCC23)C(O)CN(CC(C)C)S(=O)(=O)c2ccc(OC)cc2)cc1)Oc1ccccc1)C(=O)OC(C)(C)C [drawing 659 R1=OPh R2=(S)Hba-tBu],< 0.05
19,CCOC(=O)COP(=O)(COc1ccc(CC(NC(=O)OC2COC3OCCC23)C(O)CN(CC(C)C)S(=O)(=O)c2ccc(OC)cc2)cc1)Oc1ccccc1 (centres unmarked) [drawing 658 R1=OPh R2=Glc-Et],< 0.05
20,CCOC(=O)C(C)OP(=O)(COc1ccc(CC(NC(=O)OC2COC3OCCC23)C(O)CN(CC(C)C)S(=O)(=O)c2ccc(C=O)cc2)cc1)Oc1ccccc1 (centres unmarked),< 0.05
21,COc1ccc(S(=O)(=O)N(CC(C)C)CC(O)C(Cc2ccc(OCP(=O)(O)OCc3ccccc3)cc2)NC(=O)OC2COC3OCCC23)cc1 (centres unmarked) [drawing 651 R1=OH R2=OBn],0.5 to 5
22,CCOC(=O)C(CC)NP(=O)(CCNCc1ccc(C[C@H](NC(=O)O[C@H]2CO[C@H]3OCC[C@H]32)[C@H](O)CN(CC(C)C)S(=O)(=O)c2ccc(OC)cc2)cc1)Oc1ccccc1 (some centres unmarked) [drawing 662 R1=Ph R2=Aba-Et],0.5 to 5
23,"COc1ccc(S(=O)(=O)N(CC(C)C)C[C@@H](O)[C@H](Cc2ccc(OCP(=O)(Oc3ccccc3)OC(C)C(=O)OC(C)C)cc2)NC(=O)O[C@H]2CO[C@H]3OCC[C@H]32)cc1 (single isomer, unassigned) [drawing 658 R1=OPh R2=Lac-iPr]",< 0.05
24,CCOC(=O)COP(=O)(COc1ccc(C[C@H](NC(=O)O[C@H]2CO[C@H]3OCC[C@H]32)[C@H](O)CN(CC(C)C)S(=O)(=O)c2ccc(OC)cc2)cc1)OCC(=O)OCC [drawing 656 R1=Glc-Et R2=Glc-Et],0.5 to 5
25,CCOP(=O)(CCN1CCN(CC(NC(=O)OC2COC3OCCC23)C(O)CN(CC(C)C)S(=O)(=O)c2ccc(OC)cc2)CC1)OCC (centres unmarked),0.05 to 0.5
26,CCOC(=O)[C@H](C)OP(=O)(COc1ccc(C[C@H](NC(=O)O[C@H]2CO[C@H]3OCC[C@H]32)[C@H](O)CN(CC(C)C)S(=O)(=O)c2ccc(OC)cc2)cc1)Oc1cccc(CN(C)CCOC)c1 (stereo partly drawn) [drawing 660 R1=OPh-m-CH2NMeC2OM R2=(S)Lac-Et],0.05 to 0.5

# Test system: mutant HIV-1 with I84V/L90M mutations in the protease gene
# Assay: not given
# Format: cell-based
# Details: I84V/L90M mutant
row,SMILES,I84V/L90M fold change
1,"COc1ccc(S(=O)(=O)N(CC(C)C)C[C@@H](O)[C@H](Cc2ccc(OCP(=O)(Oc3ccccc3)Oc3ccccc3)cc2)NC(=O)OC2CCOC2)cc1 (some centres unmarked) [OMe, phenol]",+ (>3 to ≦10)
2,CCOP(=O)(COc1cc(S(=O)(=O)N(CC(C)C)CC(O)C(Cc2ccccc2)NC(=O)OC2COC3OCCC23)ccc1OC)OCC (centres unmarked),+ (>3 to ≦10)
3,COc1ccc(S(=O)(=O)N(CCN(C)C)CC(O)C(Cc2ccc(OCc3ccccc3)cc2)NC(=O)OC2COC3OCCC23)cc1 (centres unmarked),— (≦3)
4,CC(C)CN(CC(O)C(Cc1ccccc1)NC(=O)OC1COC2OCCC12)S(=O)(=O)c1cccc(OCP(=O)(O)O)c1 (centres unmarked),+ (>3 to ≦10)
5,COc1ccc(S(=O)(=O)N(CCN2CCOCC2)CC(O)C(Cc2ccc(OCP(=O)(OCc3ccccc3)OCc3ccccc3)cc2)NC(=O)OC2COC3OCCC23)cc1 (centres unmarked),+ (>3 to ≦10)
6,Cc1cccc(C)c1OCC(=O)NC(Cc1ccc(OCP(=O)(O)O)cc1)C(O)CN(CC(C)C)S(=O)(=O)c1ccc(N)cc1 (centres unmarked),+ (>3 to ≦10)
7,CC(C)CN(CC(O)C(Cc1ccccc1)NC(=O)OC1COC2OCCC12)S(=O)(=O)c1cccc(O)c1 (centres unmarked),+ (>3 to ≦10)
8,COc1ccc(S(=O)(=O)N(CCN2CCOCC2)CC(O)C(Cc2ccc(OCP(=O)(O)O)cc2)NC(=O)OC2COC3OCCC23)cc1 (centres unmarked),+ (>3 to ≦10)
9,CC(C)CN(CC(O)C(Cc1ccc(OCP(=O)(OCc2ccccc2)OCc2ccccc2)cc1)NC(=O)OC1COC2OCCC12)S(=O)(=O)c1ccc(F)cc1 (centres unmarked),+ (>3 to ≦10)
10,CC(C)CN(CC(O)C(Cc1ccc(OCP(=O)(OCc2ccccc2)OCc2ccccc2)cc1)NC(=O)OC1COC2OCCC12)S(=O)(=O)c1ccc(OC(F)(F)F)cc1 (centres unmarked),+ (>3 to ≦10)
11,COc1ccc(S(=O)(=O)N(Cc2ccccc2)CC(O)C(Cc2ccccc2)NC(=O)OC2COC3OCCC23)cc1 (centres unmarked),+++ (>30)
12,CC(C)CN(CC(O)C(Cc1ccccc1)NC(=O)OC1COC2OCCC12)S(=O)(=O)c1ccc(OCP(=O)(OCc2ccccc2)OCc2ccccc2)cc1 (centres unmarked),+++ (>30)
13,COc1ccc(S(=O)(=O)N(CC(C)C)CC(O)C(Cc2ccc(OCc3ccccc3)cc2)NC(=O)OC2COC3OCCC23)cc1 (centres unmarked),— (≦3)
14,"COc1ccc(S(=O)(=O)N(CC(C)C)C[C@@H](O)[C@H](Cc2ccc(OCP(=O)(O)O)cc2)NC(=O)OC2CCOC2)cc1 (some centres unmarked) [OMe, OH]",+++ (>30)
15,Cc1ccc(C(=O)NC(Cc2ccc(OCP(=O)(O)O)cc2)C(O)CN(CC(C)C)S(=O)(=O)c2ccc(N)cc2)cc1O (centres unmarked),+ (>3 to ≦10)

# Same assay, conditions: fold difference in EC50, mutant vs. wild type
row,SMILES,I84V/L90M fold change
1,CCOP(=O)(Cc1ccc(NCC(NC(=O)OC2COC3OCCC23)C(O)CN(CC(C)C)S(=O)(=O)c2ccc(OC)cc2)cc1)OCC (centres unmarked),+ (>3 to ≦10)
2,CCCCOC(=O)C(CC(C)C)NP(=O)(COc1ccc(CC(NC(=O)OC2COC3OCCC23)C(O)CN(CC(C)C)S(=O)(=O)c2ccc(OC)cc2)cc1)NC(CC(C)C)C(=O)OCCCC (centres unmarked) [drawing 655 R1=Leu-Bu R2=Leu-Bu],+ (>3 to ≦10)
3,"COC(=O)N[C@H](C(=O)N[C@@H](Cc1ccccc1)[C@@H](O)CN(Cc1ccc(-c2ccccn2)cc1)NC(=O)[C@@H](NC(=O)OC)C(C)(C)C)C(C)(C)C [Atazanavir, reference compound]",+++ (>30)
4,COc1ccc(S(=O)(=O)N(CC(C)C)CC(O)C(CC2=CCN(CCP(=O)(OCc3ccccc3)OCc3ccccc3)CC2)NC(=O)OC2COC3OCCC23)cc1 (centres unmarked),+ (>3 to ≦10)
5,CCOC(=O)C(C)OP(=O)(COc1ccc2c(c1)CCN(CC(NC(=O)OC1COC3OCCC13)C(O)CN(CC(C)C)S(=O)(=O)c1ccc(OC)cc1)C2)Oc1ccccc1 (centres unmarked),+ (>3 to ≦10)
6,CCOP(=O)(Cc1ccc(N(C)CC(NC(=O)OC2COC3OCCC23)C(O)CN(CC(C)C)S(=O)(=O)c2ccc(OC)cc2)cc1)OCC (centres unmarked),+ (>3 to ≦10)
